How the values were obtained:
[1] = target: T1, topoisomerase II α (Homo sapiens, UniProt P11388); assay: Band depletion assay (extractable topoisomerase II α, western blot); type: cell-based; design: OC—NYH cells were exposed to increasing concentrations of NSC 35866 for one hour and total proteins were extracted at 0.3 M NaCl; endogenous in cells; host or cells: human small cell lung cancer OC-NYH cells; details: 200 μM, OC—NYH cells, one hour
Description: Band depletion assay was performed essentially as described in Sehested et al., 1998. The amount of extractable topoisomerase II α was detected by the ECL detection method (Amersham, Buckinghamshire, United Kingdom). OC—NYH cells were exposed to increasing concentrations of NSC 35866 for one hour and total proteins were extracted at 0.3 M NaCl. For detection of topoisomerase II α, a polyclonal primary antibody (Bio Trend, Cologne, Germany) was used. Horseradish peroxidase linked anti-rabbit antibody (Amersham, Buckinghamshire, United Kingdom) was used as secondary antibody.
FIG. 10 describes the results of studies of the ability of NSC 35866 to trap human topoisomerase II α as a non-extractable complex on DNA in a dose dependent manner. The ability of NSC 35866 to stabilise topoisomerase II α as a non-extractable complex on DNA in human SCLC OC—NYH cells was assessed using the band depletion assay as described herein. The amounts of topoisomerase II α was visualised by western blotting using a topoisomerase II α specific primary antibody: Lane 1, no drug; Lane 2, 200 μM ICRF-187; Lane 3, 200 μM NSC 35866; Lane 4, 500 μM NSC 35866; Lane 5, 1000 μM NSC 35866. Band depletion of the topoisomerase II α isoform caused by NSC 35866 was detected in two independent experiments.

[2] = target: T1, topoisomerase II α; assay: Topoisomerase II retention on DNA/streptavidin beads (salt-stable complex); type: biochemical; design: made in house; host or cells: yeast (over-expressing yeast cells)
Description: An assay capable of measuring non-covalent complexes of topoisomerase II on closed circular DNA was performed as described in Morris et al., 2000, with modifications. When performing six reactions, 60 μL M280 streptavidin coated bead (Dynal A/S, Oslo, Norway) slurry corresponding to 600 μg beads was transferred to a 1.5 mL tube that was then placed in a Dynal MPC-E (magnetic particle concentrator) rack (Dynal A/S, Oslo, Norway) for 1 to 2 minutes until the beads had settled on the tube wall. The beads were then washed twice in the DNA binding solution supplied with the kilobase binding kit (Dynal A/S, Oslo, Norway) by repeating this step. Finally, the beads were re-suspended in 250 μL DNA binding solution. A preparation of biotin labelled plasmid DNA containing a 5-kb super coiled circular DNA molecule carrying 8 successive PNA (Peptide Nucleic Acid) linked biotin labels at one known position (pGeneGrip biotin blank vector, Gene Therapy Systems Inc., San Diego, Calif., USA) was made by mixing 220 μL distilled water and 30 μL biotinylated DNA. After mixing the beads and the DNA preparation, the sample was left overnight at room temperature under gentle agitation to assure optimal formation of the DynaBeads DNA complex. Next, the complex was washed twice in 480 μL wash buffer (10 mM TRIS-HCL, pH 7.5, 2 M NaCl, 1 mM EDTA), once in distilled water, and once in topoisomerase reaction buffer (10 mM TRIS-HCl, pH 7.9, 50 mM NaCl, 50 mM KCl, 5 mM MgCl2, 1 mM EDTA, […] BSA). Then, the beads were re-suspended in 600 μL topoisomerase II buffer and divided into 6 tubes. 100 μL reactions containing plasmid DNA coated DynaBeads, topoisomerase II buffer, 2 μg purified human topoisomerase […] and drugs were incubated for 30 minutes at 37° C. When included, ATP was present at 1 mM. […]
FIG. 7 describes the results of studies of the ability of NSC 35866 to stabilise a salt-stable complex of human topoisomerase II α on covalently closed circular DNA. Retention of salt-stable (to 2 M KCl) complexes of human topoisomerase II α on circular DNA attached to magnetic beads via biotin-streptavidin linkage was determined by eluting retained protein by adding running buffer containing 4% SDS followed by heating to 100° C. for 10 minutes. The amount of human topoisomerase II α protein retained was then determined by running the samples on 7% SDS-PAGE gels followed by straining with GelCode Blue Strain Reagent (Pierce, Rockford, Ill., USA): Lane 1, no drug; Lane 2, 200 μM ICRF-187; Lane 3, 30 μM NSC 35866; Lane 4, 100 μM NSC 35866; Lane 5, 300 μM NSC 35866; Lane 6, 1000 μM NSC 35866; Lane K, 2 μg human topoisomerase II α. […]

[3] = target: T2, bisdioxopiperazine resistant Y165S mutant human topoisomerase II α (Homo sapiens, UniProt P11388, Y165S); type: biochemical; details: FIG. 2-B
T2 construct: made in house; host or cells: yeast (over-expressing yeast cells)
T2 sequence (P11388 whole entry Y165S): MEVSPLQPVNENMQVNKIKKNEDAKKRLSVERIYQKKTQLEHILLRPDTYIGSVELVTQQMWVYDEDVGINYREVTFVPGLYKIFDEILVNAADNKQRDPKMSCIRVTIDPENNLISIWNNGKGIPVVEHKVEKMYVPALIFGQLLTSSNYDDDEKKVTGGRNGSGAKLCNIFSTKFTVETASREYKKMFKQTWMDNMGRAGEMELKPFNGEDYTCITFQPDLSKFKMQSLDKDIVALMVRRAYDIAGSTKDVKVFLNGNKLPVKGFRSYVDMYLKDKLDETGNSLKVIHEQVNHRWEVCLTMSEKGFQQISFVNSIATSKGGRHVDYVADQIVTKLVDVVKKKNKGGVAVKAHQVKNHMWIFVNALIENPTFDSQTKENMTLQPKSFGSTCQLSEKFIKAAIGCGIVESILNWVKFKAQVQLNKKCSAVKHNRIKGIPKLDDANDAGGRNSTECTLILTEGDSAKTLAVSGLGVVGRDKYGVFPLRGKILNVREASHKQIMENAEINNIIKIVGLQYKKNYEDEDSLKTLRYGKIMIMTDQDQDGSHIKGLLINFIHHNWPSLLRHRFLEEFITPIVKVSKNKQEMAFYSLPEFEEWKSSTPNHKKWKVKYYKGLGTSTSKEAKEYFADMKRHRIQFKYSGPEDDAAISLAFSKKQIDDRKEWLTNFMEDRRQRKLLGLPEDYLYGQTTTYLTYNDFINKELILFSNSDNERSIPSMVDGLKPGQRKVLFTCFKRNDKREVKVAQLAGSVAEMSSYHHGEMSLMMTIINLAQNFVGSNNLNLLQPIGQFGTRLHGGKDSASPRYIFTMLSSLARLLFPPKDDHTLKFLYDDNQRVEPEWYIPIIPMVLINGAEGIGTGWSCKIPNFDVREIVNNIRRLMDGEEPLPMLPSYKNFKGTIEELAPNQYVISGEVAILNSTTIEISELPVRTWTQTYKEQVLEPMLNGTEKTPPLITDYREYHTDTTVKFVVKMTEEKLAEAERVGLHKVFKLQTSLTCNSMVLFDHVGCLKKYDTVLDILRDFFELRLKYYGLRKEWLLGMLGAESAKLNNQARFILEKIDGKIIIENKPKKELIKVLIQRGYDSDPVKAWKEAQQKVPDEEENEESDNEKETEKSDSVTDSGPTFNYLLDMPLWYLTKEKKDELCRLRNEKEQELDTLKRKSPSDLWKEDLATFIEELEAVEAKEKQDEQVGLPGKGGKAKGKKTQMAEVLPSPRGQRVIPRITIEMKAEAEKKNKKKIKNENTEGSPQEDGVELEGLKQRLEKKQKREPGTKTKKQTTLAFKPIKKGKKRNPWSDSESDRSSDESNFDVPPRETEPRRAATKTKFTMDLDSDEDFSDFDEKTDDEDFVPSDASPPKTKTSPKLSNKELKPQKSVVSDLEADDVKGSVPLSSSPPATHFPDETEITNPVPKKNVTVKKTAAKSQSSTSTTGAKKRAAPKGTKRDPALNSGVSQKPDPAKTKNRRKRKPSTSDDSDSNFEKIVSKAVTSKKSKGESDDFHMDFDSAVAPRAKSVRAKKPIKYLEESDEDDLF
Description: Topoisomerase II catalytic activity (DNA strand passage activity) was measured by using a filter-based kDNA decatenation assay as described in Jensen et al., 2002. Briefly, 200 ng ^3H labelled kDNA isolated from C. fasciculata was incubated with increasing concentrations of drug in 20 μL reaction buffer containing 10 mM TRIS-HCl pH 7.7, 50 mM NaCl, 50 mM KCl, 5 mM MgCl2, 1 mM EDTA, 15 μg/mL BSA and 1 mM ATP using two units of purified wild-type or Y165S mutant topoisomerase II α for 20 minutes at 37° C. (where one unit of activity is defined as the amount of enzyme required for complete decatenation in the absence of drug). After addition of 5× stop buffer (5% Sarkosyl, 0.0025% bromophenol blue, and 50% glycerol), unprocessed kDNA network and decatenated DNA mini-circles were separated by filtering, and the amount of unprocessed kDNA in each reaction was determined by scintillation counting.
Inhibition of human topoisomerase II α DNA strand passage activity was assessed by decatenation of tritium-labelled Crithidia fasiculata kDNA using a filter-based assay to separate unprocessed kDNA network from decatenated mini-circles.

[4] = target: T1, topoisomerase II α; assay: Topoisomerase II ATPase assay (coupled, NADH oxidation); type: biochemical; design: made in house; host or cells: yeast (over-expressing yeast cells)
Description: The reaction was monitored spectrophotometrically at 340 nm using a Bio-Tek EL808 Ultra Micro plate Reader connected to a computer with KC4 Software installed (Bio-Tek Instruments, U.S.). The change in absorbance was related to ADP production using A340^1M=6220 cm^−1. […] The rate of ATP hydrolysis, V, was determined from the linear part of the curve.
The steady-state rate of ATP hydrolysis was determined using a coupled ATPase assay as described herein. […] Error bars represent SEM of two independent experiments each performed in duplicate.
The steady-state rate of ATP hydrolysis was determined as described in for FIG. 3 and as described herein. In this analysis, the rate of ATP hydrolysis in the absence of drug was set to one in all experiments. Error bars represent SEM of 2 or 3 independent experiments each preformed in duplicate.

T1 sequence (P11388 whole entry): as the sequence (P11388 whole entry Y165S) above, with S165Y counted along it

C[C@@H](CN1CC(=O)NC(=O)C1)N1CC(=O)NC(=O)C1 [ICRF-187, (+)-1,2-bis(3,5-dioxopiperazinyl-1-yl)propane, reference compound]
effect on amount of extractable topoisomerase II α, in words [1]: clearly reduced
retention of topoisomerase II on DNA beads after 2 M KCl wash, in words ([2]; 200 μM, with ATP): strongly induced the retention of topoisomerase II to the beads
retention of topoisomerase II on DNA beads, in words ([2]; in the absence of ATP): strongly depended on ATP
inhibition of catalytic activity of the Y165S protein, in words [3]: incapable of inhibiting the catalytic activity of the Y165S protein
ATPase activity relative to that seen in the absence of drug ([4]; 100 μM, in the absence of DNA): 75%
IC50 ([4]; in the presence of DNA (DNA-stimulated), read-out: IC50, inhibition of ATPase activity): 1000 nM

Source: patent US20090209535A1, “6-ETHER/THIOETHER-PURINES AS TOPOISOMERASE II CATALYTIC INHIBITORS AND THEIR USE IN THERAPY” (TOPOTARGET A/S, priority 2005, published 2009)
